Kd data for one compound are collected here from PMC9596378, “Discovery and molecular basis of subtype-selective cyclophilin inhibitors” (Nature Chemical Biology, 2022).

Some results are limits rather than exact numbers.

Assay in all cases: Anisotropy (fluorescence polarization) binding assay
The target in experiment [1] is CypD (Homo sapiens, UniProt P30405). Also noted: PPIF (UniProtKB Entry P30405: residues 45–207); made in house; host or cells: E. coli BL21(DE3). To be noted: 0.5 nM fluorescein-labeled macrocycle. The method, then:
(§1) Final assay volume was 100 µL with 0.25% DMSO. Fluorescence anisotropy was then measured using a Tecan Spark plate reader using 492 nm/523 nm excitation/emission settings.

For experiment [2], the target named is Cyp40 (Homo sapiens, UniProt Q08752). Also noted: PPID (UniProtKB Entry Q08752: residues 1–183); made in house; host or cells: E. coli BL21(DE3). The settings on record: 0.5 nM fluorescein-labeled macrocycle. The method, then: as §1
Experiment [3] has as its target T1, PPIL1 (Homo sapiens, UniProt Q9Y3C6).
T1 construct: PPIL1 (UniProtKB Entry Q9Y3C6: residues 1–166); made in house; host or cells: E. coli BL21(DE3)
T1 sequence (Q9Y3C6 1-166): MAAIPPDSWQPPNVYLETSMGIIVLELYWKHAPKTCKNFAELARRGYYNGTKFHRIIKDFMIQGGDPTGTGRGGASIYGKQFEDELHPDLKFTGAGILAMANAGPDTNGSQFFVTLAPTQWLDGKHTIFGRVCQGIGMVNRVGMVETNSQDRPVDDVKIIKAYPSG
The settings on record: 0.5 nM fluorescein-labeled macrocycle. Here is the method:
as §1

Experiment [4] addresses T2, PPWD1 (Homo sapiens, UniProt Q96BP3).
T2 construct: PPWD1 (UniProtKB Entry Q96BP3: residues 473–646); host or cells: E. coli BL21(DE3)
T2 sequence (Q96BP3 473-646): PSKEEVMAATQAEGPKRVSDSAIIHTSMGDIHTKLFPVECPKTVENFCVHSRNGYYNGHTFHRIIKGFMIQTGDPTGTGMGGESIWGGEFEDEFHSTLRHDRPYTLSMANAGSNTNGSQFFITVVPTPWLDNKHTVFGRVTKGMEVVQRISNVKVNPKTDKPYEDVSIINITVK
The settings on record: 0.5 nM fluorescein-labeled macrocycle. The method, then:
as §1

The target in experiment [5] is T3, CypH (Homo sapiens, UniProt O43447).
T3 construct: PPIH (UniProtKB Entry O43447: residues 1–177); His6 with TEV site (2BT vector leader) (N); made in house; host or cells: E. coli BL21(DE3)
To be noted: 0.5 nM fluorescein-labeled macrocycle. Here is the method:
as §1

For experiment [6], the target named is T4, PPIL3 (Homo sapiens, UniProt Q9H2H8).
T4 construct: PPIL3 (UniProtKB Entry Q9H2H8: residues 1–161); His6 tag with TEV site (2BT vector); SNA remnant stays on the N-terminus (N, cleaved yes); made in house; host or cells: E. coli BL21(DE3)
The settings on record: 0.5 nM fluorescein-labeled macrocycle. Here is the method: as §1

For experiment [7], the target named is T5, CypE K217A (Homo sapiens, UniProt Q9UNP9, K217A).
T5 construct: Lane 5- GS-CypE K217A (131-301);; His6 tag with thrombin site (pET28a LIC); GS remnant stays on the N-terminus (N, cleaved yes); host or cells: E. coli BL21(DE3)
To be noted: 0.5 nM A26-Fl. The method, then:
as §1

Experiment [8] deals with T6, PPIL6(C-Myc/DDK) (Homo sapiens, UniProt Q8IXY8).
T6 construct: Myc; DDK (FLAG); purchased Millipore-Sigma
To be noted: 0.5 nM fluorescein-labeled macrocycle. Here is the method: as §1

The target of experiment [9] is T7, SDCCAG-10(GST) (Homo sapiens, UniProt Q6UX04).
T7 construct: GST; purchased Abnova
To be noted: 0.5 nM fluorescein-labeled macrocycle. Here is the method:
as §1

In experiment [10] the target is T8, PPIL4(Full Length) (Homo sapiens, UniProt Q8WUA2).
T8 construct: PPIL4 (full length); purchased Millipore-Sigma
To be noted: 0.5 nM fluorescein-labeled macrocycle. Here is the method:
as §1

The target in experiment [11] is T9, PPIL2 (Homo sapiens, UniProt Q13356).
T9 construct: PPIL2 (UniProtKB Entry Q13356: residues 280–457); His6 tag with thrombin site (pET28a LIC); GS remnant after cleavage (N, cleaved yes); host or cells: E. coli BL21(DE3)
The settings on record: 0.5 nM fluorescein-labeled macrocycle. Here is the method:
as §1

For experiment [12], the target named is T10, CypE (Homo sapiens, UniProt Q9UNP9).
T10 construct: PPIE (UniProtKB Entry Q9UNP9: residues 131–301); host or cells: E. coli BL21(DE3)
The settings on record: 0.5 nM fluorescein-labeled macrocycle. Here is the method: as §1

In experiment [13] the target is T11, CypA (Homo sapiens, UniProt P62937).
T11 construct: PPIA (UniProtKB Entry P62937: residues 1–165); made in house; host or cells: E. coli BL21(DE3)
To be noted: 0.5 nM fluorescein-labeled macrocycle. Here is the method:
as §1

Experiment [14] concerns the target T12, CypB (Homo sapiens, UniProt P23284).
T12 construct: PPIB (UniProtKB Entry P23284: residues 34–216); His6 with TEV site (2BT vector leader) (N); made in house; host or cells: E. coli BL21(DE3)
The settings on record: 0.5 nM fluorescein-labeled macrocycle. The method, then: as §1

Experiment [15] addresses T13, CypG (Homo sapiens, UniProt Q13427).
T13 construct: PPIG (UniProtKB Entry Q13427: residues 1–179); His6 with thrombin site (pET28a LIC leader) (N); host or cells: E. coli BL21(DE3)
T13 sequence (Q13427 1-179): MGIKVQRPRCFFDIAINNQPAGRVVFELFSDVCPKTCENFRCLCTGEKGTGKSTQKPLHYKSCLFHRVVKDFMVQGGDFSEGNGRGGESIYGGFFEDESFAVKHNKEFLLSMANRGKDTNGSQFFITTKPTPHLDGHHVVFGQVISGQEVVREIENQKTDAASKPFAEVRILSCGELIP
To be noted: 0.5 nM fluorescein-labeled macrocycle. The method, then:
as §1

The target of experiment [16] is T14, NKTR (Homo sapiens, UniProt P30414).
T14 construct: NKTR (UniProtKB Entry P30414: residues 7–179); host or cells: E. coli BL21(DE3)
T14 sequence (P30414 7-179): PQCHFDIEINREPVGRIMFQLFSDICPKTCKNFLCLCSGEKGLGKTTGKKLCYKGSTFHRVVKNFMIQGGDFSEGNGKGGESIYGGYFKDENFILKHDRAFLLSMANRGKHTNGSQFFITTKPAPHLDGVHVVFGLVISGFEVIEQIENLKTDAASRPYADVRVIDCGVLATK
To be noted: 0.5 nM fluorescein-labeled macrocycle. Here is the method: as §1

In experiment [17] the target is T15, CypC (Homo sapiens, UniProt P45877).
T15 construct: PPIC (UniProtKB Entry P45877: residues 24–212); host or cells: E. coli BL21(DE3)
To be noted: 0.5 nM fluorescein-labeled macrocycle. Here is the method:
as §1

Experiment [18] addresses T16, CypE K218A (Homo sapiens, UniProt Q9UNP9, K218A).
T16 construct: Lane 6- GS-CypE K218A (131-301);; His6 tag with thrombin site (pET28a LIC); GS remnant stays on the N-terminus (N, cleaved yes); host or cells: E. coli BL21(DE3)
To be noted: 0.5 nM A26-Fl. The method, then:
as §1

Experiment [19] deals with T17, CypE K212A (Homo sapiens, UniProt Q9UNP9, K212A).
T17 construct: Lane 4- GS-CypE K212A (131-301);; His6 tag with thrombin site (pET28a LIC); GS remnant stays on the N-terminus (N, cleaved yes); host or cells: E. coli BL21(DE3)
To be noted: 0.5 nM A26-Fl. Here is the method:
as §1

T4 sequence (Q9H2H8 whole entry, the tested form may be a part): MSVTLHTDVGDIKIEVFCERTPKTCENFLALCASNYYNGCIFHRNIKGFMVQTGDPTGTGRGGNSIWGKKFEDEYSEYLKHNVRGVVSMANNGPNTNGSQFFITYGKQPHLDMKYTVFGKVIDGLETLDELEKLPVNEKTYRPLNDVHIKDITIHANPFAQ
T9 sequence (Q13356 280-457): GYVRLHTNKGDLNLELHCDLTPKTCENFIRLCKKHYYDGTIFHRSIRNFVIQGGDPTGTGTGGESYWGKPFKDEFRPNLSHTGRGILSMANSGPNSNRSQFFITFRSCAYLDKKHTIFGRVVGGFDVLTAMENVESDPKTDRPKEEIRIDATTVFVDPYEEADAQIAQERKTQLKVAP
T12 sequence (P23284 34-216): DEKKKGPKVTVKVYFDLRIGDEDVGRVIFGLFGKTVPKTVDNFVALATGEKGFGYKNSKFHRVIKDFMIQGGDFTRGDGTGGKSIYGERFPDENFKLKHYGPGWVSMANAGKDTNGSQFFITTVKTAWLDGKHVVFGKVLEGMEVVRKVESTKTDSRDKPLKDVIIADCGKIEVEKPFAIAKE
T16 sequence (Q9UNP9 131-301 K218A): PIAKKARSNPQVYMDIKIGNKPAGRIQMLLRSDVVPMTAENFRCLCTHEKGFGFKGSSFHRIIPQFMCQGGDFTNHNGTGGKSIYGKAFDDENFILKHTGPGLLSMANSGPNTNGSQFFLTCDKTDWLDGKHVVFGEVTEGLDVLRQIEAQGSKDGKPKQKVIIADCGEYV
T17 sequence (Q9UNP9 131-301 K212A): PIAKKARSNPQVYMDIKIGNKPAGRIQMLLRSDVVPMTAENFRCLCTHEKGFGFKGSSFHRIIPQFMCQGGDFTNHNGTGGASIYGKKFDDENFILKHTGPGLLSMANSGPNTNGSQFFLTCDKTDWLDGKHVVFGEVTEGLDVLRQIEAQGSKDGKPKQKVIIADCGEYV
Cyp40, sequence (Q08752 1-183): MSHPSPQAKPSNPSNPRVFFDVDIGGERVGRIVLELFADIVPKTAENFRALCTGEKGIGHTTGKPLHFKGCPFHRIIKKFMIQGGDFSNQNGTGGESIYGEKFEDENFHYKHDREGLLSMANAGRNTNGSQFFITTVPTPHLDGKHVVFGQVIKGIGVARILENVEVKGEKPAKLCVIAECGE
T6 sequence (Q8IXY8 whole entry): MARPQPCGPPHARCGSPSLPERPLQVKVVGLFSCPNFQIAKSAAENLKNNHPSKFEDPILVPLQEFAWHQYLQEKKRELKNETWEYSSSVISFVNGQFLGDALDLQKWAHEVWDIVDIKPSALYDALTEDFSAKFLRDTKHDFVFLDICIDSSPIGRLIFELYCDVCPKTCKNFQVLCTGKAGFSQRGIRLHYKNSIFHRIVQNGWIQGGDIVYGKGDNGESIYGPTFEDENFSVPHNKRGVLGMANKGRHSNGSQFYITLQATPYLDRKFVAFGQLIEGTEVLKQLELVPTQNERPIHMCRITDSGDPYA
T10 sequence (Q9UNP9 131-301): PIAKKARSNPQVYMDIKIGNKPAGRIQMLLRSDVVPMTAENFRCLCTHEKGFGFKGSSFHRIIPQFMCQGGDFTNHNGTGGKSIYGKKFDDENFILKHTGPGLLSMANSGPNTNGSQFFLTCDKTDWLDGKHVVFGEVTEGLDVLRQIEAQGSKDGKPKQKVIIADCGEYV
CypD, sequence (P30405 45-207): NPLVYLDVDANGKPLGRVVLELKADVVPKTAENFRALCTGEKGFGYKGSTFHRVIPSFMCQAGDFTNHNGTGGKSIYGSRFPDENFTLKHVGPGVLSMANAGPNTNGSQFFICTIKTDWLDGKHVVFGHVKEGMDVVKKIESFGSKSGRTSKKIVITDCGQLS
T7 sequence (Q6UX04 whole entry): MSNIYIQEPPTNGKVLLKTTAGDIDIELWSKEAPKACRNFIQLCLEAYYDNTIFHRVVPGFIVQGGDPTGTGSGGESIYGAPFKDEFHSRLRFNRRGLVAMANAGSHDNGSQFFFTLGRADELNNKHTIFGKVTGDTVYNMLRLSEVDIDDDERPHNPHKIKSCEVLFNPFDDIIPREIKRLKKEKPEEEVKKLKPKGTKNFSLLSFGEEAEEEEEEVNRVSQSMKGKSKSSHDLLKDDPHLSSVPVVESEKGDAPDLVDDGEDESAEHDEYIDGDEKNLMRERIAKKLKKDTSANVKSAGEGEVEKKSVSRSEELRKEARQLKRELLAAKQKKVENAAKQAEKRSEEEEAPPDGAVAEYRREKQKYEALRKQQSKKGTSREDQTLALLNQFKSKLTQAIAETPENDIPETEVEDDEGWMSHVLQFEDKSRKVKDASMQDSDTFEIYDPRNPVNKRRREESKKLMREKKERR
T5 sequence (Q9UNP9 131-301 K217A): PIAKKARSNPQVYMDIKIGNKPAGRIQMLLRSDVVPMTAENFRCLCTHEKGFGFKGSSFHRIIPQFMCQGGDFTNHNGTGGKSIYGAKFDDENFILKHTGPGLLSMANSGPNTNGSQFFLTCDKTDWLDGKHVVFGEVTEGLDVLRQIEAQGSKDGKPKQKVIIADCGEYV
T3 sequence (O43447 whole entry, the tested form may be a part): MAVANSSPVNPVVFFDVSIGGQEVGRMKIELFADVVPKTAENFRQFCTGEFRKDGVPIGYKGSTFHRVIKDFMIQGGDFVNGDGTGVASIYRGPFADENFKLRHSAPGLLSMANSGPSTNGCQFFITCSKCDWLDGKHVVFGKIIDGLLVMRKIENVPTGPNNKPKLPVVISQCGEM
T15 sequence (P45877 24-212): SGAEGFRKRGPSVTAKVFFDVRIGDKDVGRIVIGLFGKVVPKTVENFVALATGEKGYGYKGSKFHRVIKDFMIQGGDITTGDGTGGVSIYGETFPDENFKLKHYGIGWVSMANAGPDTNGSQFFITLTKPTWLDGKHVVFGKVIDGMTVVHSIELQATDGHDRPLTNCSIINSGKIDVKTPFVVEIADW
T11 sequence (P62937 whole entry, the tested form may be a part): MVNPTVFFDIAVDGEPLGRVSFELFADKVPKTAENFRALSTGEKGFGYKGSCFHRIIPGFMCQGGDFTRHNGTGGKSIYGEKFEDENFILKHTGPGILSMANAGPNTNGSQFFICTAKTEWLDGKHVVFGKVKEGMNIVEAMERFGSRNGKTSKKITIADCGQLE
T8 sequence (Q8WUA2 whole entry): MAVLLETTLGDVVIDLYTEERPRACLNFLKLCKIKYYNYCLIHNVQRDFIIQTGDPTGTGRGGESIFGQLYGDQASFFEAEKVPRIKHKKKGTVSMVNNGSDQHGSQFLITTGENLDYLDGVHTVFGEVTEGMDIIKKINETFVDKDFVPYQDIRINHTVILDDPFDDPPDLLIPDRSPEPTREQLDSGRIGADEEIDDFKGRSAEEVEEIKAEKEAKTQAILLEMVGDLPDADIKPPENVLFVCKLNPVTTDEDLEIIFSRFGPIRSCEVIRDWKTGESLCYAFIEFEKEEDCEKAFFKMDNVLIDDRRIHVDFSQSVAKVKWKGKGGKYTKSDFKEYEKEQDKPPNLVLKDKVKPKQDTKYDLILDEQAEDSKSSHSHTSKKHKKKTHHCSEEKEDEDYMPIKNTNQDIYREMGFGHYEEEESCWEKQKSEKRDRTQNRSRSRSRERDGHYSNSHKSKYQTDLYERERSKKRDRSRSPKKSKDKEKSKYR

As to `O=C1/C=C/C(=O)N2CCC[C@](Cc3ccccc3)(C2)C(=O)N[C@@H](Cc2ccco2)C(=O)NCc2ccccc2CC(=O)N[C@H](C(=O)NCCCOCCOCCOCCCNC(=O)c2ccc3c(c2)C(=O)OC32c3ccc(O)cc3Oc3cc(O)ccc32)CCN1` [Compound A26-Fl], the Kd was 17 ± 2 nM in [1]; 170 ± 20 nM in experiment [2]; 230 ± 40 nM in experiment [3]; 1100 ± 600 nM in [4]; 600 ± 100 nM in [5]; 1700 ± 600 nM in experiment [6]. The Kd was 70 ± 10 nM in experiment [7]; > 1000 nM in experiment [8]; > 1000 nM in experiment [9]; > 1000 nM in experiment [10]; > 10000 nM in experiment [11]; 100 ± 30 nM in experiment [12]. Also, the Kd is 51 ± 0.7 nM in experiment [13]; 34 ± 5 nM in [14]; 170 ± 10 nM in experiment [15]; 1500 ± 400 nM in experiment [16]; 150 ± 30 nM in experiment [17]; 70 ± 20 nM in experiment [18]. Also, binding in experiment [19] was put at a Kd of 130 ± 30 nM.
